Data reported in US4356322A, “Phenoxyalkanolamine derivatives” (Veb Arzneimittelwerk Dresden, priority 1977, dated 1982).
Where a name gives a salt, the structure may show the parent alone. Read-outs that look alike come from different tables or passages of the source.

Tests used:
[1] = tested on: circulation of dogs; experiment: effects on the circulation of dogs under continual intravenous infusion; format: in vivo, dog; details: for ED30: Canis lupus familiaris, iv; for effective period / heart's oxygen demand / peripheral cardiovascular system: in vivo; for contractility, cardiac frequency and cardiac output: increases occur at approximately parallel rates
Excerpt: Column 1: Infusion rate in μg/kg/min
Column 2: Cumulative dose in μg/kg
Rate of pressure increase in the left ventricle (dp/dt/max) in mm Hg·s^-1
ED30 =dosage for 30% increase in inotropy, in μg/kg
Max=maximum increase in percent in inotropy at dose μg/kg
Column 4: Cardiac frequency in n·min^-1
ED30 =dosage for 30% increase in frequency, in μg/kg
Max=maximum increase in percent in frequency at dose μg/kg
Column 5: Cardiac output ml·min^-1 ·kg^-1
Column 6: Diastolic blood pressure in mm Hg
Column 7: Number of animals used in the experiments
X=median values (initial value and after cumulative dose)
%=change in percent of initial value
In these experiments, the compounds were used in the form of hydrochlorides.

[2] = tested on: cat; experiment: β-mimetic effect on contractility and cardiac frequency in anesthetized cat; format: in vivo; details: HCl salt
[3] = in vivo; details: rat, iv
[4] = tested on: β-receptor; details: M. J. Davey, Arch. Pharmacol. 179 (1973); cited from earlier work
[5] = tested on: rats; details: rat, intravenous, acute; HCl salt
[6] = dog, i.v. infusion, read-out: ED30, dosage for 30% increase in frequency
[7] = dog, i.v. infusion, read-out: ED30, dosage for 30% increase in inotropy
[8] = dog, 12,5 μg/kg/min, cumulative dose --
[9] = dog, at 50 μg/kg, i.v. infusion
[10] = dog, 1,00 μg/kg/min, cumulative 30,0 μg/kg
[11] = dog, 0,25 μg/kg/min, cumulative 15,0 μg/kg
[12] = dog, at 15 μg/kg, i.v. infusion
[13] = dog, 1,00 μg/kg/min, cumulative 10,0 μg/kg
[14] = dog, at 30 μg/kg, i.v. infusion
[15] = dog, 1,00 μg/kg/min, cumulative 20,0 μg/kg
[16] = dog, 0,125 μg/kg/min, cumulative dose --
[17] = dog, at 0,1875 (μg/kg), i.v. infusion
[18] = dog, 10,0 μg/kg/min, cumulative 200 μg/kg

CC(CCc1ccc(O)cc1)NCCc1ccc(O)c(O)c1 (stereo not drawn) [Dobutamine, reference compound]
ED30 [1, 6]: 23 µg/kg | ED30 [1, 7]: 7.5 µg/kg | frequency and cardiovascular dilation ([1]; at higher dosages): strong increases in frequency and in cardiovascular dilation | Cardiac frequency, change in percent of initial value [1, 8]: +8% | Cardiac frequency, median initial value - value after dose [1, 8]: 78-84 n.min^-1 | Cardiac output, change in percent of initial value [1, 8]: +23% | Cardiac output, median initial value - value after dose [1, 8]: 152 to 186 mL/min/kg | Diastolic blood pressure, change in percent of initial value [1, 8]: +3% | Diastolic blood pressure, median initial value - value after dose [1, 8]: 101-103 mm Hg | dp/dt max, change in percent of initial value [1, 8]: +75% | dp/dt max, median initial value - value after dose [1, 8]: 3088-5410 mm Hg.s^-1 | Max, maximum increase in percent in frequency [1, 9]: +56% | Max, maximum increase in percent in inotropy [1, 9]: +191% | effective period ([1]; dog): equal to the rather brief effective period of isoprenaline | inotropy ([1]; in words): strong rise in inotropy

OC(CNCCNc1ccccc1Cl)COc1ccccc1 (stereo not drawn) [Example 1, 3-[β-(2-chlorophenylamino)-ethyl]-amino-2-hydroxy-1-phenoxypropane]
HR, percent change from initial value in heart frequency ([2]; D 0.01 mg/kg i.v.): +11% | dp/dt max, percent change from initial value, left ventricle ([2]; D 0.01 mg/kg i.v.): +59% | ED30 [1, 6]: 20 µg/kg | ED30 [1, 7]: 11 µg/kg | Cardiac frequency, change in percent of initial value [1, 10]: +34% | Cardiac frequency, median initial value - value after cumulative dose [1, 10]: 80-107 n.min^-1 | Cardiac output, change in percent of initial value [1, 10]: +69% | Cardiac output, median initial value - value after cumulative dose [1, 10]: 115 to 195 mL/min/kg | Diastolic blood pressure, change in percent of initial value [1, 10]: +2% | Diastolic blood pressure, median initial value - value after cumulative dose [1, 10]: 111-113 mm Hg | dp/dt max, change in percent of initial value [1, 10]: +76% | dp/dt max, median initial value - value after cumulative dose [1, 10]: 3028-5326 mm Hg.s^-1 | Max, maximum increase in percent in inotropy [1, 9]: +91% | Max, maximum increase in percent in frequency ([1]; dog, at 60 μg/kg, i.v. infusion): +37% | LD50 [3]: 21000 µg/kg

Cc1cccc(C)c1NCCNCC(O)COc1ccccc1 (stereo not drawn) [Example 7, 3-[β-(2,6-dimethylphenylamino)-ethyl]-amino-2-hydroxy-1-phenoxypropane hydrochloride]
HR, percent change from initial value in heart frequency ([2]; D 0.01 mg/kg i.v.): +14% | dp/dt max, percent change from initial value, left ventricle ([2]; D 0.01 mg/kg i.v.): +104% | ED30 [1, 6]: 15 µg/kg | ED30 [1, 7]: 5 µg/kg | Cardiac frequency, change in percent of initial value [1, 11]: +30% | Cardiac frequency, median initial value - value after cumulative dose [1, 11]: 72-93 n.min^-1 | Cardiac output, change in percent of initial value [1, 11]: +35% | Cardiac output, median initial value - value after cumulative dose [1, 11]: 138 to 185 mL/min/kg | Diastolic blood pressure, change in percent of initial value [1, 11]: -3% | dp/dt max, change in percent of initial value [1, 11]: +72% | dp/dt max, median initial value - value after cumulative dose [1, 11]: 3834-6590 mm Hg.s^-1 | Max, maximum increase in percent in frequency [1, 12]: +30% | Max, maximum increase in percent in inotropy [1, 12]: +72% | LD50 [3]: 32000 µg/kg

O=[N+]([O-])c1cccc(NCCNCC(O)COc2ccccc2)c1 (stereo not drawn) [Example 16, 3-[β-(3-nitrophenylamino)-ethyl]-amino-2-hydroxy-1-phenoxypropane]
HR, percent change from initial value in heart frequency ([2]; D 0.01 mg/kg i.v.): +13% | dp/dt max, percent change from initial value, left ventricle ([2]; D 0.01 mg/kg i.v.): +57% | ED30 [1, 6]: 20 µg/kg | ED30 [1, 7]: 5 µg/kg | Cardiac frequency, change in percent of initial value [1, 13]: +13% | Cardiac frequency, median initial value - value after cumulative dose [1, 13]: 83-94 n.min^-1 | Cardiac output, change in percent of initial value [1, 13]: +32% | Cardiac output, median initial value - value after cumulative dose [1, 13]: 129 to 169 mL/min/kg | dp/dt max, change in percent of initial value [1, 13]: +71% | dp/dt max, median initial value - value after cumulative dose [1, 13]: 3068-5230 mm Hg.s^-1 | Max, maximum increase in percent in frequency [1, 14]: +39% | Max, maximum increase in percent in inotropy [1, 14]: +100% | LD50 [3]: 44000 µg/kg

Nc1cccc(NCCNCC(O)COc2ccccc2)c1 (stereo not drawn) [Example 17, 3-[β-(3-aminophenylamino)-ethyl]-amino-2-hydroxy-1-phenoxypropane trihydrochloride]
HR, percent change from initial value in heart frequency ([2]; D 0.01 mg/kg i.v.): +19% | dp/dt max, percent change from initial value, left ventricle ([2]; D 0.01 mg/kg i.v.): +84% | ED30 [1, 6]: 16 µg/kg | ED30 [1, 7]: 5.5 µg/kg | Cardiac frequency, change in percent of initial value [1, 15]: +33% | Cardiac frequency, median initial value - value after cumulative dose [1, 15]: 85-113 n.min^-1 | Cardiac output, change in percent of initial value [1, 15]: +44% | Cardiac output, median initial value - value after cumulative dose [1, 15]: 138 to 198 mL/min/kg | Diastolic blood pressure, change in percent of initial value [1, 15]: +1% | Diastolic blood pressure, median initial value - value after cumulative dose [1, 15]: 103-104 mm Hg | dp/dt max, change in percent of initial value [1, 15]: +84% | dp/dt max, median initial value - value after cumulative dose [1, 15]: 3071-5663 mm Hg.s^-1 | Max, maximum increase in percent in inotropy ([1]; dog, at 40 μg/kg, i.v. infusion): +93% | Max, maximum increase in percent in frequency [1, 9]: +49% | LD50 [3]: 66000 µg/kg

CC(C)NCC(O)c1ccc(O)c(O)c1 (stereo not drawn) [Isoprenaline-Sulphate, reference compound]
ED30 [1, 6]: 0.06 µg/kg | Cardiac frequency, change in percent of initial value [1, 16]: +51% | Cardiac frequency, median initial value - value after dose [1, 16]: 76-115 n.min^-1 | Cardiac output, change in percent of initial value [1, 16]: +94% | Cardiac output, median initial value - value after dose [1, 16]: 130 to 253 mL/min/kg | Diastolic blood pressure, change in percent of initial value [1, 16]: -3% | dp/dt max, change in percent of initial value [1, 16]: +64% | dp/dt max, median initial value - value after dose [1, 16]: 3136-5140 mm Hg.s^-1 | Max, maximum increase in percent in frequency [1, 17]: +75% | Max, maximum increase in percent in inotropy [1, 17]: +116% | effective period ([1]; dog): rather brief | heart's oxygen demand ([1]; dog): excessive rise in the heart's oxygen demand | peripheral cardiovascular system ([1]; dog): a dilation of the peripheral cardiovascular system | contractility, cardiac frequency and cardiac output [1]: increases in contractility, cardiac frequency and cardiac output

CC(C)NCC(O)COc1cccc2ccccc12 (stereo not drawn) [Propranolol, reference compound]
HR, percent change from initial value in heart frequency ([2]; D 0.10 mg/kg i.v.): -8% | dp/dt max, percent change from initial value, left ventricle ([2]; D 0.10 mg/kg i.v.): -8%

Cc1ccccc1OCC(O)CNCCOc1ccc(C(N)=O)cc1 (stereo not drawn) [Tolamolol, 1-[2-(4-carbamoylphenoxy)-ethylamino]-3-(2-methylphenoxy)-propan-2-ol, reference compound]
HR, percent change from initial value in heart frequency ([2]; D 0.10 mg/kg i.v.): -10% | dp/dt max, percent change from initial value, left ventricle ([2]; D 0.10 mg/kg i.v.): -17% | intrinsic sympathicomimetic activity [4]: does not exhibit an "intrinsic sympathicomimetic activity" | β-blocking efficacy compared with propranolol [4]: about equal to that of propranolol | β-receptor blocking selectivity [4]: cardioselective β-receptor blocking agent | LD50 [3]: 133000 µg/kg

COc1cccc(C(=O)CCN[C@@H](C)[C@H](O)c2ccccc2)c1.Cl [d-l-Oxyphedrine Hydrochloride, reference compound]
HR, percent change from initial value in heart frequency ([2]; D 0.50 mg/kg i.v.): +2% | dp/dt max, percent change from initial value, left ventricle ([2]; D 0.50 mg/kg i.v.): +38% | Cardiac frequency, change in percent of initial value [1, 18]: +56% | Cardiac frequency, median initial value - value after cumulative dose [1, 18]: 75-117 n.min^-1 | Cardiac output, change in percent of initial value [1, 18]: +65% | Cardiac output, median initial value - value after cumulative dose [1, 18]: 112 to 186 mL/min/kg | Diastolic blood pressure, change in percent of initial value [1, 18]: -13% | dp/dt max, change in percent of initial value [1, 18]: +50% | dp/dt max, median initial value - value after cumulative dose [1, 18]: 3072-4600 mm Hg.s^-1 | Max, maximum increase in percent in inotropy ([1]; dog, at 500 μg/kg, i.v. infusion): +89% | Max, maximum increase in percent in frequency ([1]; dog, at 600 μg/kg, i.v. infusion): +104% | ED30, dosage for 30% increase in frequency ([1]; dog, i.v. infusion): 130 µg/kg | ED30, dosage for 30% increase in inotropy ([1]; dog, i.v. infusion): 130 µg/kg | heart's oxygen demand ([1]; dog): excessive rise in the heart's oxygen demand | peripheral cardiovascular system ([1]; dog): a dilation of the peripheral cardiovascular system | contractility, cardiac frequency and cardiac output [1]: increases in contractility, cardiac frequency and cardiac output | LD50 [5]: 26000 µg/kg
